Article PMC10498667 (Chemical Science, 2023)
Values joined by “and” are separate entries in the source; they are usually repeats but may differ in a detail not shown here. Identical values can stand only once.

How the values were obtained:
Aβ42 = target: T1, Aβ42 (Homo sapiens, UniProt P05067); test: Additional disaggregation experiments (preformed aggregates or seeds with Aβ monomers); assay type: biochemical; details: metal-free Aβ42 and metal–Aβ42; flavonoid 50 μM
T1 construct: purchased Peptide Institute, Inc. (Osaka, Japan)
Method: To probe the secondary nucleation of disassembled Aβ aggregates induced by the flavonoids on Aβ monomers, additional disaggregation experiments were conducted by incubating preformed aggregates of metal-free and metal-treated Aβ or their seeds with Aβ monomers. […] These indications describe the significance of three hydroxyl groups on the A ring in the flavonoid structure to impact the aggregation of metal-free Aβ and metal–Aβ. […]
Ab Aggregation Experiments. Ab was dissolved in ammonium hydroxide [1% w/w NH4OH (aq)] and the resulting solution was aliquoted, lyophilized overnight, and stored at –80 °C. A stock solution of Ab was then prepared by dissolving the lyophilized peptide with NH4OH (1% w/w, aq; 10 µL) and diluting with ddH2O. All Ab samples were prepared following previously reported procedures.21,22 The concentration of the peptide solution was determined by measuring its […]
solution (20 mM HEPES, pH 7.4, 150 mM NaCl) was used for preparing Ab samples. […]
For the disaggregation studies, Ab (25 µM) was incubated with and without CuCl2 or ZnCl2 (25 µM) for 24 h at 37 °C with constant agitation to generate preformed Ab aggregates. The resultant Ab aggregates were then treated with flavonoids (50 µM) and incubated for additional 24 h with constant agitation. For the additional disaggregation experiments, preformed Ab42 aggregates (25 µM) or Ab42 seeds (10% v/v) with or without metal ions (25 µM for CuCl2 and ZnCl2) were incubated with flavonoids (50 µM) for 24 h with constant agitation. The resultant Ab aggregates were then treated with freshly prepared Ab42 […]
(25 µM) and incubated for additional 24 h with constant agitation.
Gel/Western Blot. The resultant Ab species from the aggregation experiments were analyzed by gel/Western blot using an anti-Ab antibody (6E10, Covance, Princeton, NJ, USA).21,22 Each sample (10 µL) was separated on a 10–20% tricine gel (Invitrogen). Following separation, the proteins were transferred onto nitrocellulose membranes and blocked with bovine serum albumin (BSA, 3% w/v; Sigma-Aldrich) in Tris-buffered saline (TBS) containing 0.1% v/v Tween-20 (Sigma-Aldrich) (TBS-T) for 4 h at room temperature or overnight at 4 °C. The membranes were incubated with 6E10 (1:2,000) in the solution of BSA (2% w/v in TBS-T) for 4 h at room temperature. […] A homemade ECL kit21–23 was used to visualize gel/Western blots on a ChemiDoc MP Imaging System (Bio-Rad).
TEM. […]
Cu(II)-binding Studies. The interaction of flavonoids with Cu(II) was detected by Abs spectroscopy in 20 mM HEPES, pH 7.4, 150 mM NaCl. […] The mixture solution was allowed to equilibrate for 5 min after the addition of CuCl2 at room temperature before the spectra were recorded. […]

[1] = test system: human neuroblastoma SH-SY5Y (5Y) cells; test: Cellular ROS detection assay (prooxidant activity); assay type: cell-based
Method: Cellular ROS Detection Assay. The prooxidant activity of flavonoids in living cells was measured by a cellular ROS detection assay kit (Abcam) following the manufacturer ’s protocol. The human neuroblastoma 5Y cells were maintained in media containing 50% v/v Dulbecco's Modified Eagle Medium and 50% v/v Nutrient Mixture F12 (phenol red-free DMEM/F12; GIBCO, Grand Island, NY, USA) supplemented with 10% v/v fetal bovine serum (GIBCO) and 100 U/mL penicillin-streptomycin (GIBCO). The cells were grown and maintained at 37 °C in a humidified atmosphere with 5% CO2. Cells were seeded in a 96-well plate (50,000 cells/100 µL). After 24 h incubation, a ROS-staining working solution (100 µL) was added to each well and the plate was incubated for 1 h at 37 °C. Cells were then treated with the samples {[flavonoid] = 0.01, 0.1, 0.5, and 1 mM (1% v/v DMSO)}. The cellular ROS levels upon the treatment of samples were measured based on the fluorescence intensity (lex/lem = 520/605 nm) of the wells that was detected after 2 h incubation and calculated, relative to that of the cells containing an equivalent amount of DMSO.
All experiments were performed in triplicate.

metal-free Aβ42 = target: T2, metal-free Aβ42 (Homo sapiens, UniProt P05067); test: CD spectroscopy of metal-free Aβ42 (BeStSel); details: Aβ42 100 μM; flavonoid 200 μM; 37 °C; 24 h
T2 construct: purchased Peptide Institute, Inc. (Osaka, Japan)
Method: CD Spectroscopy. Metal-free Ab42 (100 µM) was incubated with and without 5, 4b, and 6 (200 µM) for 24 h in 20 mM HEPES, pH 7.4, 150 mM NaF at 37 °C with constant agitation (250 rpm).
CD spectra were collected in the range from 195 nm to 255 nm. The digital integration time, the bandwidth, and the scanning speed were 4 s, 2 nm, and 20 nm/min, respectively. Each spectrum was smoothed by Fourier transforms. The change in the secondary structure of metal-free Ab42 […]
treated with a flavonoid was analyzed following the previously reported BeStSel method.25 The measurements were conducted in triplicate. […]
mM HEPES, pH 7.4, 150 mM NaCl) with or without Ab40 (25 µM) in the absence and presence of CuCl2 or ZnCl2 (25 µM). Abs spectra of the samples were collected for 24 h at 37 °C.
6c [3-(3,4-Dihydroxyphenyl)-5,6,7-trimethoxy-4H-chromen-4-one]. […] After 4 h, the reaction mixture was extracted in a solution of ethyl acetate (EtOAc) and saturated sodium acetate (NaOAc; 0.12 g/mL). The organic layer was collected, washed with brine, dried with sodium sulfate ([…]), filtered, and concentrated. The crude product was purified by column chromatography (SiO2; EtOAc:hexanes = 1:1) to yield 6c [Rf = 0.3; yellow powder; 650 mg, 2.0 mmol (yield = 31%)] that was used for the next step without further purification. 1H NMR [400 MHz, […]

T1 sequence (P05067 672-713 limits assumed): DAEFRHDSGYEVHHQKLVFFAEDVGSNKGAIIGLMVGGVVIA
T2 sequence (P05067 672-713 limits assumed): as above

## O=c1cc(-c2ccccc2)oc2ccc(O)c(O)c12 [compound 3, 5,6-dihydroxyflavone]
Aβ42
  MW distribution after incubating treated preformed aggregates or seeds with Aβ monomers (secondary nucleation): reactivity specifically towards metal–Aβ42 species

## O=c1c(-c2ccccc2)coc2cc(O)c(O)c(O)c12 [4b, 5,6,7-trihydroxyisoflavone]
[1]; 0.01 and 0.1 mM flavonoid
  cellular ROS concentration / prooxidative activity: no elevation of the cellular ROS concentration
[1]; 0.5 and 1 mM flavonoid
  cellular ROS concentration / prooxidative activity: the prooxidative activity was observed
Aβ42
  MW distribution after incubating treated preformed aggregates or seeds with Aβ monomers (secondary nucleation): notable variations in the MW distribution
metal-free Aβ42
  Random Coils (%) of metal-free Aβ42: 53.8% and 53.8 (±5.9) %
  Turn (%) of metal-free Aβ42: 10.3%
  α-Helix (%) of metal-free Aβ42: 0.4%
  β-Sheet (%) of metal-free Aβ42: 35.5% and 35.5 (±5.7) %

## O=c1cc(-c2ccccc2)oc2c(Cl)c(O)c(O)c(O)c12 [compound 5, 8-chlorobaicalein]
Aβ42
  MW distribution after incubating treated preformed aggregates or seeds with Aβ monomers (secondary nucleation): notable variations in the MW distribution
metal-free Aβ42
  Random Coils (%) of metal-free Aβ42: 19.7% and 19.7 (±15.5) %
  Turn (%) of metal-free Aβ42: 12.5%
  α-Helix (%) of metal-free Aβ42: 1.2%
  β-Sheet (%) of metal-free Aβ42: 66.7% and 66.7 (±15.3) %

## O=c1c(-c2ccc(O)c(O)c2)coc2cc(O)c(O)c(O)c12 [compound 6, 3-(3,4-dihydroxyphenyl)-5,6,7-trihydroxy-4H-chromen-4-one]
[1]; 0.01 and 0.1 mM flavonoid
  cellular ROS concentration / prooxidative activity: No prooxidative activity
[1]; 0.5 and 1 mM flavonoid
  cellular ROS concentration / prooxidative activity: increase in the amount of cellular ROS
metal-free Aβ42
  Random Coils (%) of metal-free Aβ42: 13.6%
  Turn (%) of metal-free Aβ42: 38.1%
  α-Helix (%) of metal-free Aβ42: 1.5%
  β-Sheet (%) of metal-free Aβ42: 46.7%

## O=c1cc(-c2ccccc2)oc2cc(O)c(O)c(O)c12 [compound 4, baicalein]
Aβ42
  MW distribution after incubating treated preformed aggregates or seeds with Aβ monomers (secondary nucleation): notable variations in the MW distribution
